Source: US8987314B2, “Amide, urea or sulfone amide linked benzothiazole inhibitors of endothelial lipase” (Bristol-Myers Squibb Company, priority 2012, dated 2015)

Legend:
Endothelial lipase (EL) = Endothelial lipase (EL) (Homo sapiens (Human), UniProt Q9Y5X9); experiment: EL assay: endothelial lipase activity with fluorescent substrate A10070 in DMPG vesicles; assay type: biochemical
Method in brief: (§1)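 Vesicles prepared: A10070 dried with DMPG, resuspended in HEPES pH 8.0/NaCl/EDTA, sonicated on ice. Enzyme incubated with compound 30 min at 37° C. Reaction started with 1:10 diluted vesicles. Fluorescence (490/530 nm) followed 60 min; slope from 300–900 secs gives rate.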

hepatic lipase (HL) = hepatic lipase (HL) (Homo sapiens (Human), UniProt P11150); experiment: HL assay: hepatic lipase activity with fluorescent substrate A10070 in DMPG vesicles; assay type: biochemical
Method in brief: as §1

Chain of hepatic lipase (HL) (P11150 23-499, species assumed): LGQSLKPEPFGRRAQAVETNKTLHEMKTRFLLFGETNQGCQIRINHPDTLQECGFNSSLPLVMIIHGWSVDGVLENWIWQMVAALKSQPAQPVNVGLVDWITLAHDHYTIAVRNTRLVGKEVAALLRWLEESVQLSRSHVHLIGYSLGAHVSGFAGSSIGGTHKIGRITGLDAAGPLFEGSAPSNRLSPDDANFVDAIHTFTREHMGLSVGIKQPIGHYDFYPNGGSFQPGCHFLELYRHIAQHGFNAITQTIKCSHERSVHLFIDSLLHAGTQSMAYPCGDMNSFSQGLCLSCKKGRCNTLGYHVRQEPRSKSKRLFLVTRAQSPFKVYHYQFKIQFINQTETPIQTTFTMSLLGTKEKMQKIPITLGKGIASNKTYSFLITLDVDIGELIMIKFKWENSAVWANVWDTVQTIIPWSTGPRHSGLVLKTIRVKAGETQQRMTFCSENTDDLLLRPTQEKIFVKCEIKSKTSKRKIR
Chain of Endothelial lipase (EL) (Q9Y5X9 21-500): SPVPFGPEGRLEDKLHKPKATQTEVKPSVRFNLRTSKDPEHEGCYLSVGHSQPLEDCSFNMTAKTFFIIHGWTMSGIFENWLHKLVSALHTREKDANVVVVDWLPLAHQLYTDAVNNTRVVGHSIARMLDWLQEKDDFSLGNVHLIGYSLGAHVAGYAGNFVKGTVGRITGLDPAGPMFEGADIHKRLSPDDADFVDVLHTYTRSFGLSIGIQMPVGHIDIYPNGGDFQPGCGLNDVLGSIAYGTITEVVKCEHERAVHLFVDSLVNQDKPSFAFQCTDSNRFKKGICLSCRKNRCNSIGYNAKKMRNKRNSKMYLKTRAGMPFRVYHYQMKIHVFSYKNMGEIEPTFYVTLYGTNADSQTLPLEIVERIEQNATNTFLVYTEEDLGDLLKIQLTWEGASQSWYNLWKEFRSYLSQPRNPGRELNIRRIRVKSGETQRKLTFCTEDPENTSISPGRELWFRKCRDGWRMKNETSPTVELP

SMILES	IC50 (Endothelial lipase (EL))	IC50 (hepatic lipase (HL))
Cc1cc2nc(C(C(=O)NCCS(N)(=O)=O)S(=O)(=O)Cc3ccccc3)sc2cc1-c1ccc(C(=O)N2CC(C)(O)C2)cc1 (stereo not drawn) [Example B347, 2-{6-[4-(3-hydroxy-3-methylazetidine-1-carbonyl)phenyl]-5-methyl-1,3-benzothiazol-2-yl}-2-phenylmethane-sulfonyl-N-(2-sulfamoylethyl)acetamide]	3.4 nM	580 nM
Cc1cc2nc(C(C(=O)NCCS(N)(=O)=O)S(=O)(=O)Cc3ccccc3)sc2cc1-c1ccc(C(=O)N2CCCCC2)cc1 (stereo not drawn) [Example B348, 2-{5-methyl-6-[4-(piperidine-1-carbonyl)phen-yl]-1,3-benzothiazol-2-yl}-2-phenylmethane-sulfonyl-N-(2-sulfamoylethyl)acetamide]	1 nM	37.1 nM
Cc1cc2nc(C(C(=O)NCCS(N)(=O)=O)S(C)(=O)=O)sc2cc1-c1ccc(C(=O)N2CC(C)(O)C2)cc1 (stereo not drawn) [Example B349, 2-{6-[4-(3-hydroxy-3-methylazetidine-1-carbonyl)phenyl]-5-methyl-1,3-benzothiazol-2-yl}-2-methanesulfonyl-N-(2-sulfamoylethyl)a-cetamide]	2.3 nM	347 nM
Cc1cc2nc(C(C(=O)NCCS(N)(=O)=O)S(C)(=O)=O)sc2cc1-c1ccc(C(=O)N2CCOCC2)cc1 (stereo not drawn) [Example B350, 2-methanesulfonyl-2-{5-methyl-6-[4-(morpholine-4-carbonyl)phenyl]-1,3-benzothiazol-2-yl}-N-(2-sulfamoylethyl)acetamide]	3.2 nM	90.5 nM
NS(=O)(=O)CCNC(=O)C(c1nc2ccc(-c3ccc(C(=O)N4CCCCC4)cc3)cc2s1)S(=O)(=O)Cc1ccccc1 (stereo not drawn) [Example B351, 2-phenylmethanesulfonyl-2-{6-[4-(piperidine-1-carbonyl)phenyl]-1,3-benzothiazol-2-yl}-N-(2-sulfamoylethyl)acetamide]	6.2 nM	14.9 nM
CS(=O)(=O)C(C(=O)NCCS(N)(=O)=O)c1nc2cc(-c3ccccc3F)ccc2s1 (stereo not drawn) [Example B352, 2-[5-(2-fluorophenyl)-1,3-benzothiazol-2-yl]-2-methanesulfonyl-N-(2-sulfamoylethyl)acetamide]	0.8 nM	13.7 nM
CC1(O)CN(C(=O)c2ccc(-c3ccc4nc(C(C(=O)NCCS(N)(=O)=O)S(=O)(=O)Cc5ccc(F)cc5)sc4c3)cc2)C1 (stereo not drawn) [Example B353, 2-[(4-fluorophenyl)meth-anesulfonyl]-2-{6-[4-(3-hydroxy-3-methylazetidine-1-carbonyl)phcnyl]-1,3-benzothiazol-2-yl}-N-(2-sulfamoylethyl)acetamide]	2 nM	18.5 nM
CO[C@@H]1CCN(C(=O)c2ccc(-c3ccc4nc(C(C(=O)NCCS(N)(=O)=O)S(=O)(=O)Cc5ccc(OC(F)(F)F)cc5)sc4c3)cc2)C1 (stereo partly drawn) [Example B354, 2-(6-{4-[(3R)-3-methoxy-pyrrolidine-1-carbonyl]phen-yl}-1,3-benzothiazol-2-yl)-N-(2-sulfamoyl-ethyl)-2-{[4-(trifluoro-methoxy)phenyl]methane-sulfonyl}acetamide]	3.8 nM	553 nM
CO[C@H]1CCN(C(=O)c2ccc(-c3ccc4nc(C(C(=O)NCCS(N)(=O)=O)S(=O)(=O)Cc5ccc(OC(F)(F)F)cc5)sc4c3)cc2)C1 (stereo partly drawn) [Example B356, 2-(6-{4-[(3S)-3-methoxy-pyrrolidine-1-carbonyl]phen-yl}-1,3-benzothiazol-2-yl)-N-(2-sulfamoyl-ethyl)-2-{[4-(trifluoro-methoxy)phenyl]methane-sulfonyl}acetamide]	2.7 nM	26.7 nM
CC1(O)CN(C(=O)c2ccc(-c3ccc4nc(C(C(N)=O)S(=O)(=O)Cc5ccc(OC(F)(F)F)cc5)sc4c3)cc2)C1 (stereo not drawn) [Example B362, 2-{6-[4-(3-hydroxy-3-methylazetidine-1-carbonyl)phenyl]-1,3-benzothiazol-2-yl}-2-{[4-(trifluoromethoxy)phen-yl]methanesulfonyl}a-cetamide]	158 nM	30.3 nM

Results, then the molecule that gave them:

IC50 (Endothelial lipase (EL))	IC50 (hepatic lipase (HL))	SMILES
6.6 nM	235 nM	NS(=O)(=O)CCNC(=O)C(c1nc2ccc(-c3ccc(C(=O)N4CC(F)C4)cc3)cc2s1)S(=O)(=O)Cc1ccc(OC(F)(F)F)cc1 (stereo not drawn) [Example B355, 2-{6-[4-(3-fluoroazetidine-1-carbonyl)phenyl]-1,3-benzothiazol-2-yl}-N-(2-sulfamoylethyl)-2-{[4-(trifluoromethoxy)phen-yl]methanesulfonyl}a-cetamide]
15 nM	93.2 nM	NS(=O)(=O)CCNC(=O)C(c1nc2ccc(-c3ccc(C(=O)N4CC(F)(F)C4)cc3)cc2s1)S(=O)(=O)Cc1ccc(C(F)(F)F)cc1 (stereo not drawn) [Example B357, 2-{6-[4-(3,3-difluoro-azetidine-1-carbonyl)phen-yl]-1,3-benzothiazol-2-yl}-N-(2-sulfamoyl-ethyl)-2-{[4-(trifluoromethyl)phen-yl]methanesulfonyl}a-cetamide]
3.7 nM	67.6 nM	NS(=O)(=O)CCNC(=O)C(c1nc2ccc(-c3ccc4c(c3)CNC4=O)cc2s1)S(=O)(=O)Cc1ccc(C(F)(F)F)cc1 (stereo not drawn) [Example B358, 2-[6-(1-oxo-2,3-dihydro-1H-isoindol-5-yl)-1,3-benzothiazol-2-yl]-N-(2-sulfamoylethyl)-2-{[4-(trifluoromethyl)phen-yl]methanesulfonyl}a-cetamide]
4.7 nM	47 nM	NS(=O)(=O)CCNC(=O)C(c1nc2ccc(-c3ccc(C(=O)N4CC(F)(F)C4)cc3)cc2s1)S(=O)(=O)Cc1cccc(C(F)(F)F)c1 (stereo not drawn) [Example B359, 2-{6-[4-(3,3-difluoro-azetidine-1-carbonyl)phen-yl]-1,3-benzothiazol-2-yl}-N-(2-sulfamoyl-ethyl)-2-{[3-(trifluoromethyl)phen-yl]methanesulfonyl}a-cetamide]
6.2 nM	471 nM	CC1(O)CN(C(=O)c2ccc(-c3ccc4nc(C(C(=O)NCCS(N)(=O)=O)S(=O)(=O)Cc5cccc(C(F)(F)F)c5)sc4c3)cc2)C1 (stereo not drawn) [Example B360, 2-{6-[4-(3-hydroxy-3-methylazetidine-1-carbonyl)phenyl]-1,3-benzothiazol-2-yl}-N-(2-sulfamoylethyl)-2-{[3-(trifluoromethyl)phen-yl]methanesulfonyl}a-cetamide]
121 nM	1230 nM	Cn1cc(-c2ccc3nc(C(C(=O)NCCS(N)(=O)=O)S(=O)(=O)Cc4ccc(C(F)(F)F)cc4)sc3c2)ccc1=O (stereo not drawn) [Example B361]
11.6 nM	10000 nM	CC(C)(O)Cn1ccc(-c2ccc3nc(C(C(=O)NCCS(N)(=O)=O)S(=O)(=O)Cc4ccc(F)cc4)sc3c2)cc1=O (stereo not drawn) [Example B363, 2-[(4-fluorophenyl)meth-anesulfonyl]-2-{6-[1-(2-hydroxy-2-methylpropyl)-2-oxo-1,2-dihydropyridin-4-yl]-1,3-benzothiazol-2-yl}-N-(2-sulfamoylethyl)acetamide]
28.3 nM	10000 nM	Cn1ccc(-c2ccc3nc(C(C(=O)NCCS(N)(=O)=O)S(=O)(=O)Cc4ccc(C(F)(F)F)cc4)sc3c2)cc1=O (stereo not drawn) [Example B364, 2-[6-(1-methyl-2-oxo-1,2-dihydropyridin-4-yl)-1,3-benzothiazol-2-yl]-N-(2-sulfamoylethyl)-2-{[4-(trifluoromethyl)phen-yl]methanesulfonyl}a-cetamide]
